This passage reports IC50 results from US20090004185A1, “AMINO-SUBSTITUTED QUINAZOLINE DERIVATIVES AS INHIBITORS OF BETA-CATENIN/TCF-4 PATHWAY AND CANCER TREATMENT AGENTS” (WYETH, priority 2007, published 2009).

For assay [1], the system named is β-catenin/Tcf-4. As to the kind of experiment: cells. It is filed as cell-based. To be noted: Homo sapiens, 24 hours of incubation with compound, ratio Firefly/Renilla luciferase. The method, boiled down: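 SW480-derived lines with integrated reporters (Tcf-4-driven firefly luciferase; SV40 firefly as specificity control; SV40 Renilla for cell number/toxicity), treated 24 hours with titrated compounds, final 0.316% DMSO. Dual-luciferase read-out; firefly/Renilla ratio as % of control, duplicate plates, IC50 (nM) from curve fit.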

The test system of assay [2] is SV40-Luc. As to the kind of experiment: SV40-Luc control luciferase reporter assay, SV 5A8 cell line (SV40-Luc and SV40-R-Luc), control for non-specific inhibitors. The assay is classed as cell-based, human. Particulars: Homo sapiens, SV5A8, 24 h, SV 5A8 cells derived from SW480; 24 hours of incubation with compound; ratio Firefly/Renilla luciferase. In a few lines: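 Cells were plated and, 20-24 hours later, treated with titrated compound (0.316% DMSO final). After 24 hours they were lysed or given Dual-Glo reagent, and firefly then Renilla luminescence was measured. IC50s came from firefly/Renilla ratios as % of control.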

[3] abbreviates: SW480, 24 h, Tcf 33.13 cells derived from SW480.
The mark [4] stands for this setting: Tcf22C11, 24 h, Tcf 22C11 cells derived from SW480.

In general, IC50 refers to the point on the concentration scale where inhibition reaches its midpoint. For `Cc1ccc2c(NCc3ccc(NC(=O)c4ccc(F)cc4)cc3)nc(N3CCN(CC(=O)N4CCCC4)CC3)nc2c1` [Example 213, 4-fluoro-N-{4-[({7-methyl-2-[4-(2-oxo-2-pyrrolidin-1-ylethyl)piperazin-1-yl]quinazolin-4-yl}amino)methyl]phenyl}benzamide], the results for the IC50 in assay [1] (setting [3]), in assay [1] (setting [4]) and in assay [2] were 1390 nM, 1710 nM and above 12400 nM, respectively.

`Cc1ccc2c(NCc3ccc(NC(=O)c4ccc(F)cc4)cc3)nc(N(C)CCO)nc2c1` [Example 214, 4-fluoro-N-{4-[({2-[(2-hydroxyethyl)(methyl)amino]-7-methylquinazolin-4-yl}amino)methyl]phenyl}benzamide]: the IC50 in assay [1] (setting [3]) was 379 nM; in assay [1] (setting [4]), 452 nM; in assay [2], above 1090 nM.

As to `Cc1ccc2c(NCc3ccc(NC(=O)c4ccc(F)cc4)cc3)nc(N3CCN(Cc4ccc5c(c4)OCO5)CC3)nc2c1` [Example 215, N-{4-[({2-[4-(1,3-benzodioxol-5-ylmethyl)piperazin-1-yl]-7-methylquinazolin-4-yl}amino)methyl]phenyl}-4-fluorobenzamide], the half-inhibitory concentration (IC50) is 3190 nM in assay [1] (setting [3]), 1960 nM in assay [1] (setting [4]) and above 12000 nM in assay [2].

With `Cc1ccc2c(NCc3ccc(NC(=O)c4ccc(F)cc4)cc3)nc(N3CCN(c4ncccn4)CC3)nc2c1` [Example 216, 4-fluoro-N-[4-({[7-methyl-2-(4-pyrimidin-2-ylpiperazin-1-yl)quinazolin-4-yl]amino}methyl)phenyl]benzamide], the IC50 in assay [1] (setting [3]) was 315 nM; in assay [1] (setting [4]) it was 464 nM; in assay [2] it was above 3220 nM.

On to `Cc1ccc2c(NCc3ccc(NC(=O)c4ccc(F)cc4)cc3)nc(N3CCN(C=O)CC3)nc2c1` [Example 217, 4-fluoro-N-[4-({[2-(4-formylpiperazin-1-yl)-7-methylquinazolin-4-yl]amino}methyl)phenyl]benzamide], for which the IC50 was 3680 nM in assay [1] (setting [3]), 1860 nM in assay [1] (setting [4]) and above 16300 nM in assay [2].

Turning to `CCOC(=O)N1CCN(c2nc(NCc3ccc(NC(=O)c4ccc(F)cc4)cc3)c3ccc(C)cc3n2)CC1` [Example 218, ethyl 4-[4-({4-[(4-fluorobenzoyl)amino]benzyl}amino)-7-methylquinazolin-2-yl]piperazine-1-carboxylate], the results for the concentration for half-maximal inhibition (IC50) in assay [1] (setting [3]), in assay [1] (setting [4]) and in assay [2] were 939 nM, 1280 nM and above 15200 nM, respectively.

Turning to `Cc1ccc2c(NCc3ccc(NC(=O)c4ccc(F)cc4)cc3)nc(N3CCN(CC(=O)NC(C)C)CC3)nc2c1` [Example 219, 4-fluoro-N-(4-{[(2-{4-[2-(isopropylamino)-2-oxoethyl]piperazin-1-yl}-7-methylquinazolin-4-yl)amino]methyl}phenyl)benzamide], the IC50 was 1420 nM in assay [1] (setting [3]), 1800 nM in assay [1] (setting [4]) and above 14600 nM in assay [2].

Turning to `COCCN(C)c1nc(NCc2ccc(NC(=O)c3ccc(F)cc3)cc2)c2ccc(C)cc2n1` [Example 220, 4-fluoro-N-{4-[({2-[(2-methoxyethyl)(methyl)amino]-7-methylquinazolin-4-yl}amino)methyl]phenyl}benzamide], the IC50 in assay [1] (setting [3]) is 682 nM; in assay [1] (setting [4]), 1140 nM; in assay [2], above 8510 nM.

Consider `Cc1ccc2c(NCc3ccc(NC(=O)c4ccc(F)cc4)cc3)nc(N(C)Cc3ccco3)nc2c1` [Example 221, 4-fluoro-N-{4-[({2-[(2-furylmethyl)(methyl)amino]-7-methylquinazolin-4-yl}amino)methyl]phenyl}benzamide], for which the IC50 in assay [1] (setting [3]) was 1060 nM; in assay [1] (setting [4]), 1240 nM; in assay [2], above 8200 nM.

With `Cc1ccc2c(NCc3ccc(NC(=O)c4ccc(F)cc4)cc3)nc(N(C)CCc3ccccn3)nc2c1` [Example 222, 4-fluoro-N-{4-[({7-methyl-2-[methyl(2-pyridin-2-ylethyl)amino]quinazolin-4-yl}amino)methyl]phenyl}benzamide], the IC50 in assay [1] (setting [3]) was 650 nM; in assay [1] (setting [4]), 918 nM; in assay [2], above 7880 nM.

In the case of `CC(=O)N1CCCN(c2nc(NCc3ccc(NC(=O)c4ccc(F)cc4)cc3)c3ccc(C)cc3n2)CC1` [Example 223, N-[4-({[2-(4-acetyl-1,4-diazepan-1-yl)-7-methylquinazolin-4-yl]amino}methyl)phenyl]-4-fluorobenzamide], the IC50 was 2660 nM in assay [1] (setting [3]), 4460 nM in assay [1] (setting [4]) and above 15600 nM in assay [2].

Regarding `Cc1ccc2c(NCc3ccc(NC(=O)c4ccc(F)cc4)cc3)nc(N3CCCCC3CCO)nc2c1` (stereo not drawn) [Example 224, 4-fluoro-N-{4-[({2-[2-(2-hydroxyethyl)piperidin-1-yl]-7-methylquinazolin-4-yl}amino)methyl]phenyl}benzamide], the IC50 in assay [1] (setting [3]) is 781 nM; in assay [1] (setting [4]), 1000 nM; in assay [2] it was above 9740 nM.

Turning to `Cc1ccc2c(NCc3ccc(NC(=O)c4ccc(F)cc4)cc3)nc(N3CCC(N4CCCC4)CC3)nc2c1` [Example 226, 4-fluoro-N-[4-({[7-methyl-2-(4-pyrrolidin-1-ylpiperidin-1-yl)quinazolin-4-yl]amino}methyl)phenyl]benzamide], the IC50 in assay [1] (setting [3]) was 754 nM; in assay [1] (setting [4]), 866 nM; in assay [2] it was above 9280 nM.

Take `CCN1CCN(c2nc(NCc3ccc(NC(=O)c4ccc(F)cc4)cc3)c3ccc(C)cc3n2)CC1` [Example 227, N-[4-({[2-(4-ethylpiperazin-1-yl)-7-methylquinazolin-4-yl]amino}methyl)phenyl]-4-fluorobenzamide]: the IC50 in assay [1] (setting [3]) is 736 nM; in assay [1] (setting [4]), 1150 nM; in assay [2], above 10000 nM.

For the molecule `Cc1ccc2c(NCc3ccc(NC(=O)c4ccc(F)cc4)cc3)nc(N3CCC[C@H]3CN3CCCC3)nc2c1` [Example 228, 4-fluoro-N-{4-[({7-methyl-2-[(2S)-2-(pyrrolidin-1-ylmethyl)pyrrolidin-1-yl]quinazolin-4-yl}amino)methyl]phenyl}benzamide], the half-maximal inhibitory concentration (IC50) in assay [1] (setting [3]) was 2210 nM; in assay [1] (setting [4]), 1900 nM; in assay [2], above 4640 nM.

With `Cc1ccc2c(NCc3ccc(NC(=O)c4ccc(F)cc4)cc3)nc(NCCCN3CCN(C)CC3)nc2c1` [Example 229, 4-fluoro-N-(4-{[(7-methyl-2-{[3-(4-methylpiperazin-1-yl)propyl]amino}quinazolin-4-yl)amino]methyl}phenyl)benzamide], the IC50 in assay [1] (setting [3]) was 2320 nM; in assay [1] (setting [4]), 2190 nM; in assay [2], above 4620 nM.

In the case of `Cc1ccc2c(NCc3ccc(NC(=O)c4ccc(F)cc4)cc3)nc(NCCN3CCCC3)nc2c1` [Example 237, 4-fluoro-N-{4-[({7-methyl-2-[(2-pyrrolidin-1-ylethyl)amino]quinazolin-4-yl}amino)methyl]phenyl}benzamide], the results for the IC50 in assay [1] (setting [3]), in assay [1] (setting [4]) and in assay [2] were 829 nM, 888 nM and above 5010 nM, respectively.

Take `Cc1ccc2c(NCc3ccc(NC(=O)c4ccc(Br)cc4)cc3)nc(N(C)C)nc2c1` [Example 239, 4-bromo-N-[4-({[2-(dimethylamino)-7-methylquinazolin-4-yl]amino}methyl)phenyl]benzamide]: the IC50 in assay [1] (setting [3]) is 193 nM; in assay [1] (setting [4]), 204 nM; in assay [2], above 1270 nM.

For the molecule `Cc1ccc2c(NCc3ccc(NC(=O)c4ccc(C)nc4)cc3)nc(N(C)C)nc2c1` [Example 241, N-[4-({[2-(dimethylamino)-7-methylquinazolin-4-yl]amino}methyl)phenyl]-6-methylnicotinamide], the IC50 was 813 nM in assay [1] (setting [3]), 1030 nM in assay [1] (setting [4]) and above 23400 nM in assay [2].
